For one test, the target named is purified γ-secretase (Homo sapiens, UniProt P49768). In words: Purified enzyme assay: inhibition of γ-secretase. The class given is biochemical.
Test [1] addresses T1, γ-secretase (Homo sapiens, UniProt P49768). In words: Enzyme inhibition kinetics. The class given is biochemical.
The target in test [2] is T1, γ-secretase. In words: Cross-competition kinetic experiment between two inhibitors. The class given is biochemical. The note with it: for cross-competition with HPI 2 for binding: second inhibitor HPI 2 (docking site); for cross-competition with TSA 17 for binding: second inhibitor TSA 17 (active site).
The target of test [3] is presenilin-1 (PS1) N-terminal fragment (NTF) of γ-secretase (Homo sapiens, UniProt P49768). The conditions noted are these: solubilized lysates from γ-secretase-expressing human embryonic kidney 293 cells.

These results are taken from PMC7359870 (Journal of the American Chemical Society, 2020).

Entries after “also recorded” stand apart in the source; their conditions may differ. Starred links: 1 amine or outer side, 2 acyl side, 3 side chain; linkers in the order of their positions; H or OH if unused. Non-standard residues stand in square brackets, D forms with d. Residues, ends and D or L forms follow the SMILES beside them. *: point of attachment. X1 = CC(C)C[C@H](NC(=O)N(Cc1ccccc1)C[C@@H](O)[C@H](Cc1ccccc1)N*)C(=O)N[C@H](C(N)=O)C(C)C; X2 = CC(C)[C@H](NC(=O)[C@H](C)NC(=O)N(Cc1ccccc1)C[C@@H](O)[C@H](Cc1ccccc1)N*)C(N)=O; NH(CH2)8CO = O=C(CCCCCCCCN[*:1])[*:2]; Boc = CC(C)(C)OC(=O)*; Aib = CC(C)(N)C(=O)O; Ava = NCCCCC(=O)O

Regarding `CC[C@H](C)[C@H](NC(=O)[C@@H](NC(=O)[C@@H](NC(=O)C(C)(C)NC(=O)CNC(=O)[C@@H](NC(=O)OC(C)(C)C)C(C)C)C(C)C)C(C)C)C(=O)NC(C)(C)C(=O)N[C@@H](Cc1ccccc1)C(=O)N[C@H](C(=O)NC(C)(C)C(=O)NCCCCC(=O)N[C@H](C(=O)N[C@@H](Cc1ccccc1)[C@H](O)CN(Cc1ccccc1)C(=O)N[C@@H](CC(C)C)C(=O)N[C@H](C(N)=O)C(C)C)C(C)C)C(C)C` [Compound 5, Boc-Val-Gly-Aib-Val-Val-Ile-Aib-Phe-Val-Aib-NH(CH2)4CO-Val-Phe-ψ-Phe-Leu-Val-NH2] (Boc-VG[Aib]VVI[Aib]FV[Aib][Ava]V-X1), on purified γ-secretase (relative to IC50 of TSA 1 or HPI 2), the “potency compared to TSA 1 or HPI 2 (fold increase)” value is listed as 4-to-6 fold.
For `CC[C@H](C)[C@H](NC(=O)[C@@H](NC(=O)[C@@H](NC(=O)C(C)(C)NC(=O)CNC(=O)[C@@H](NC(=O)OC(C)(C)C)C(C)C)C(C)C)C(C)C)C(=O)NC(C)(C)C(=O)N[C@@H](Cc1ccccc1)C(=O)N[C@H](C(=O)NC(C)(C)C(=O)NCCCCCCCCC(=O)N[C@H](C(=O)N[C@@H](Cc1ccccc1)[C@H](O)CN(Cc1ccccc1)C(=O)N[C@@H](CC(C)C)C(=O)N[C@H](C(N)=O)C(C)C)C(C)C)C(C)C` [Compound 6, Boc-Val-Gly-Aib-Val-Val-Ile-Aib-Phe-Val-Aib-NH(CH2)8CO-Val-Phe-ψ-Phe-Leu-Val-NH2] (Boc-VG[Aib]VVI[Aib]FV[Aib][NH(CH2)8CO]V-X1), on γ-secretase [1], the “type of inhibition (enzyme inhibition kinetics)” value is reported as “noncompetitive inhibition”. Besides, at γ-secretase [2], the “cross-competition with HPI 2 for binding” value is listed as “competed” and the “cross-competition with TSA 17 for binding” value is listed as “competed”. Further, at γ-secretase [2] (listed as HPI-TSA 6), the “cross-competition with HPI 2 for binding” value is on record as “competes” and the “cross-competition with TSA 17 for binding” value is “competes”. Also, in test [3], the “labelling of PS1 NTF by active-site-directed photoprobe TSA-Bpa-Bt” value is given as “Decreased photolabelling; also recorded: decreased labelling” and the “labelling of PS1 NTF by docking-site-directed photoprobe HPI-Bpa-Bt” value was “Decreased photolabelling; also recorded: decreased labelling”.
With `CC[C@H](C)[C@H](NC(=O)[C@H](NC(=O)[C@H](NC(=O)C(C)(C)NC(=O)CNC(=O)[C@@H](NC(=O)OC(C)(C)C)C(C)C)C(C)C)C(C)C)C(=O)NC(C)(C)C(=O)N[C@@H](Cc1ccccc1)C(=O)N[C@H](C(=O)NC(C)(C)C(=O)NCCCCCCCCC(=O)N[C@H](C(=O)N[C@@H](Cc1ccccc1)[C@H](O)CN(Cc1ccccc1)C(=O)N[C@@H](CC(C)C)C(=O)N[C@H](C(N)=O)C(C)C)C(C)C)C(C)C` [Compound 9, Boc-Val-Gly-Aib-^DVal-^D Val-Ile-Aib-Phe-Val-Aib-NH(CH2)8CO-Val-Phe-ψ-Phe-Leu-Val-NH2] (Boc-VG[Aib][dV][dV]I[Aib]FV[Aib][NH(CH2)8CO]V-X1), the “reduction of inhibitory potency relative to 6” value at purified γ-secretase (relative to HPI-TSA 6) is listed as “decreased nearly eight-fold”.
On to `CC[C@H](C)[C@H](NC(=O)[C@@H](NC(=O)[C@@H](NC(=O)C(C)(C)NC(=O)CNC(=O)[C@@H](NC(=O)OC(C)(C)C)C(C)C)C(C)C)C(C)C)C(=O)NC(C)(C)C(=O)N[C@@H](Cc1ccccc1)C(=O)N[C@H](C(=O)NC(C)(C)C(=O)NCCCCCCCCC(=O)N[C@H](C(=O)N[C@@H](Cc1ccccc1)[C@H](O)CN(Cc1ccccc1)C(=O)N[C@@H](C)C(=O)N[C@H](C(N)=O)C(C)C)C(C)C)C(C)C` [Compound 16] (Boc-VG[Aib]VVI[Aib]FV[Aib][NH(CH2)8CO]V-X2; N-terminus and C-terminus assumed), for which the “type of inhibition (enzyme inhibition kinetics)” value on γ-secretase [1] is reported as “noncompetitive inhibition”. Besides, in test [3], the “labelling of PS1 NTF by active-site-directed photoprobe TSA-Bpa-Bt” value is recorded as “Decreased photolabelling; also recorded: decreased labelling” and the “labelling of PS1 NTF by docking-site-directed photoprobe HPI-Bpa-Bt” value is given as “Decreased photolabelling; also recorded: decreased labelling”.
